Reference: ChEMBL document CHEMBL1806405, “Internalization of a C17α-alkynylestradiol-porphyrin conjugate into estrogen receptor positive MCF-7 breast cancer cells” (Bioorg Med Chem Lett, 2011)
Activity calls are given as the source filed them. No cut-off for these calls is given here.

Molecular target: T1, Estrogen receptor (Homo sapiens) (UniProt P03372)
T1 sequence (whole entry): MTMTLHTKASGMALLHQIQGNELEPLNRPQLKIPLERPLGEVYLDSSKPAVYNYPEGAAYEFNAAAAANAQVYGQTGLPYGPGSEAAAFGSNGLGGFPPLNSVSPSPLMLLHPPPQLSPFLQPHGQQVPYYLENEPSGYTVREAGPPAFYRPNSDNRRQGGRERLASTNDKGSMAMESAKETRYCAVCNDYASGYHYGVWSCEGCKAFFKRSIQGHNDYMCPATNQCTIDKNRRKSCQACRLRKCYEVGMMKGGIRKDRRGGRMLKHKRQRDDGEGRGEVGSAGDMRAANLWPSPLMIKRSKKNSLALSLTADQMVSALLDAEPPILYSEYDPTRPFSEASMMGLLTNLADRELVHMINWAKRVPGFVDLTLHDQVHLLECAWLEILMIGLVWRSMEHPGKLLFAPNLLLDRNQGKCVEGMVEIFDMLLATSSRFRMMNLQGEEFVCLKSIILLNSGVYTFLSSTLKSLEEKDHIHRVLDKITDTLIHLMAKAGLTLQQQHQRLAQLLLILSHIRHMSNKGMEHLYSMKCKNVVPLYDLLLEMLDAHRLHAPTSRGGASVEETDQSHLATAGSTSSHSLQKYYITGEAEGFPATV
Assay: Induction of estrogen receptor-mediated compound internalization in human MCF-7 cells at 10 umol by fluorescence microscopy
Format: cell-based
Settings: MCF7

Question: How did the Activity turn out when C=CC1=C(C)c2cc3[nH]c(c4c5nc(cc6[nH]c(cc1n2)c(C)c6CC)C(C)=C5C(=O)C4)[C@@H](CCC(=O)O)[C@@H]3C was run?
Answer: The Activity was “inactive”.

Question: Which Activity does the source give for C=CC1=C(C)c2cc3[nH]c(c4c5nc(cc6[nH]c(cc1n2)c(C)c6CC)C(C)=C5C(=O)C4)[C@@H](CCC(=O)OCCC#C[C@]1(O)CC[C@H]2[C@@H]4CCc5cc(O)ccc5[C@H]4CC[C@@]21C)[C@@H]3C here?
Answer: The Activity was “Active”.
